Entries after “also recorded” stand apart in the source; their conditions may differ. Read-outs that look alike come from different tables or passages of the source.
Columns and labels:
[1] = system: triple-negative human breast cancer cell line MDA-MB-468; assay: XTT cell killing / growth inhibition assay, MDA-MB-468; format: cell-based; conditions: for IC50: Homo sapiens
Description: (§1) Standard XTT assays with a four-day drug treatment procedure were performed to measure the dose dependent cytotoxicity of IBR analogs in cultured cells. In brief, cells were plated on 96-well dishes one day before the drug treatment, followed by drug treatment on day 2 and XTT assay on day 6 after drug addition by using a commercial cell proliferation kit (Roche Scientific) following the instructions.
(§2) Triplicate sets were measured and compiled for final data presentation.
To test the possibility of inhibiting triple-negative breast cancer, the newly synthesized IBR2 analogues IBR101-124 were screened of their growth inhibition abilities using an XTT assay.

[2] = system: human Chronic Myelogenous Leukemia cell line K562; assay: XTT growth inhibition assay, K562; format: cell-based
Description: as §1, §2
(§3) The growth inhibition of a panel of cancer cell lines was tested against IBR120 using an XTT assay. These cell lines included human Chronic Myelogenous Leukemia cell line K562, human breast cancer cell lines MCF7, MDA-MB-231, MDA-MB-361, MDA-MB-435, MDA-MB-468, Hs578-T, and T47D, human Osteosarcoma cell line U2OS, human Glioblastoma cell line T98G, human Cervical Cancer cell line HeLa, as well as human mammary gland normal epithelial cell line MCF10A as normal control.

[3] = system: human breast cancer cell line MCF7; assay: XTT growth inhibition assay, MCF7; format: cell-based; conditions: MCF7, Mammary Gland Adenocarcinoma
Description: as §1, §2, §3

[4] = system: human breast cancer cell line MDA-MB-231; assay: XTT growth inhibition assay, MDA-MB-231; format: cell-based; conditions: MDA-MB-231, Mammary Gland Adenocarcinoma
Description: as §1, §2, §3

[5] = system: human breast cancer cell line MDA-MB-361; assay: XTT growth inhibition assay, MDA-MB-361; format: cell-based; conditions: MDA-MB-361, Mammary Gland Adenocarcinoma
Description: as §1, §2, §3

[6] = system: human breast cancer cell line MDA-MB-435; assay: XTT growth inhibition assay, MDA-MB-435; format: cell-based; conditions: MDA-MB-435, Melanoma/Mammary Gland Ductal Carcinoma
Description: as §1, §2, §3

[7] = system: human breast cancer cell line Hs578-T; assay: XTT growth inhibition assay, Hs578-T; format: cell-based; conditions: Hs-578T, Mammary Gland Carcinoma
Description: as §1, §2, §3

[8] = system: human breast cancer cell line T47D; assay: XTT growth inhibition assay, T47D; format: cell-based; conditions: Mammary Gland Ductal Carcinoma
Description: as §1, §2, §3

[9] = system: human Osteosarcoma cell line U2OS; assay: XTT growth inhibition assay, U2OS; format: cell-based
Description: as §1, §2, §3

[10] = system: human Glioblastoma cell line T98G; assay: XTT growth inhibition assay, T98G; format: cell-based; conditions: Glioblastoma Multiforme
Description: as §1, §2, §3

[11] = system: human Cervical Cancer cell line HeLa; assay: XTT growth inhibition assay, HeLa; format: cell-based; conditions: Cervix Adenocarcinoma
Description: as §1, §2, §3

[12] = system: human mammary gland normal epithelial cell line MCF10A; assay: XTT growth inhibition assay, MCF10A normal control; format: cell-based; conditions: MCF-10A
Description: as §1, §2, §3

[13] = system: panel of cancer cell lines; assay: XTT growth inhibition assay, panel of cancer cell lines (summary); format: cell-based, human
Description: as §1, §2, §3

RAD51 = molecular target: T1, RAD51 (Homo sapiens, UniProt Q06609); assay: Multimer formation assay (gel filtration); format: biochemical; conditions: RAD51:IBR120 1:10 molar ratio, gel filtration profile
T1 sequence (Q06609 1-339): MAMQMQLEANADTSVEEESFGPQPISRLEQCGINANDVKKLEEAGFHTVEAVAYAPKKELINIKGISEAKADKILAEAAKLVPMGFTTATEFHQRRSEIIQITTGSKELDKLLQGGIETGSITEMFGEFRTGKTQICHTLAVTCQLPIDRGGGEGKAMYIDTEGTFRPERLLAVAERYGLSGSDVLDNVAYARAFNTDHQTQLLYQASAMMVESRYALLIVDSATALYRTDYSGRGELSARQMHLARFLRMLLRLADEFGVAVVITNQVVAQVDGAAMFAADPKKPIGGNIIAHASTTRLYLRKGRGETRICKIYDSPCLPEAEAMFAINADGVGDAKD
Description: A mixture of RAD51 (3.2 μg) and IBR120 (1:10 molar ratio) was incubated for 15 min at 37° C., supplemented with buffer (50 mM triethanolamine-HCl [pH7.5], 0.5 mM Mg(OAc)2, 1 mM DTT, 2 mM ATP and 100 μg/ml BSA, total volume 20 μl) and incubated for 15 min. The mixture was loaded onto a 2.4 ml Superdex 200 PC 3.2/30 column (Pharmacia) equilibrated with the same buffer as previously described (Zhu et al., 2013, EMBO Mol. Med. 5:1-13; Pierce et al., 1999, Genes Dev. 13:2633-2638). Fractions (50 μl) were collected and 0.5 μl of each fraction was blotted onto PVDF membrane. RAD51 was detected using anti-RAD51 antibody (mAb 14B4, GeneTex)
On the RAD51 core domain, a hydrophobic pocket formed between β-strand B3 and α-helix A4 of RAD51 is critical for RAD51 multimerization (Pellegrini et al., 2002, Nature 420:287-293). It was hypothesized that IBR compounds should be able to inhibit RAD51 multimerization. In order to test this hypothesis, the gel filtration profile of RAD51 multimerization in the presence of IBR120 or vehicle (DMSO) alone were compared.

[14] = system: HR repair in HeLa-DR-GFP cells; assay: HR assay (I-SceI inducible gene conversion, DR-GFP); format: cell-based, human; conditions: 10 or 20 μM, 24 hours, GFP positive cells by flow cytometry
Description: HR frequency was measured by two-colour fluorescence flow cytometric analysis using HeLa-DR-GFP cells. Fifty thousand events were analyzed for each experiment. Cells were treated with DMSO (mock), 10 or 20 μM of IBR2 or IBR120 as indicated for 24 hours after transient transfection with I-SceI expression vector pCABSce for 24 hours. HR frequencies were indicated by GFP positive cell percentages. […] DMSO. […] DMSO. […] DMSO. […] DMSO. […] GFP positive cell percentages by indicated treatments obtained from three independent experiments are summarized as means±SD.
Using previously described methods (Zhu et al., 2013, EMBO Mol. Med. 5:1-13; Pierce et al., 1999, Genes Dev. 13:2633-2638), HeLa cells stably expressing DR-GFP were transfected with the I-Sce expression vector pCBASce and treated with compounds or DMSO. Cells were then trypsinized and subjected to flow cytometry.
Inhibition of RAD51 function will lead to failure in HR repair. […] Upon I-SceI expression by transient transfection for 24 hours to induce DSBs, cells were treated with DMSO, 10 or 20 μM of IBR120 or IBR2 for another 24 hours and the GFP positive population resulting from successful recombination was measured by flow cytometry.

IC50 [2]: 3.6 ± 0.7 µM | IC50 [3]: 3.1 ± 0.2 µM | IC50 [4]: 3.5 ± 0.4 µM | IC50 [5]: 4.5 ± 0.7 µM | IC50 [6]: 4 ± 0.7 µM | IC50 [7]: 4.9 ± 1 µM | IC50 [8]: 6.3 ± 1.5 µM | IC50 [9]: 4.7 ± 0.5 µM | IC50 [10]: 9.5 ± 0.9 µM | IC50 [11]: 3.6 ± 0.6 µM | IC50 ([13]; Homo sapiens, XTT assay, read-out: IC50 values in most tested cancer cell lines): 3 to 5 µM
SMILES: O=S(=O)(Cc1ccccc1)N1Cc2ccccc2[C@@H]1c1c[nH]c2ccccc12 [IBR120, (R)-3-(2-(benzylsulfonyl)isoindolin-1-yl)-1H-indole]
IC50 ([1]; 96 h, MDA-MB-468, XTT assay, four-day drug treatment, read-out: IC50): 3.1 µM | IC50 ([1]; MDA-MB-468, growth inhibition, raw dataset for SAR analysis, read-out: pIC50 (converted)): 3.24 µM | IC50 ([1]; MDA-MB-468, Mammary Gland Adenocarcinoma (Table 3, with spread), read-out: IC50): 3.1 ± 0.4 µM | IC50 compared with that of the parental compound IBR2 (in words) ([1]; MDA-MB-468): significantly lower | IC50 [12]: > 30 µM | difference between the IC50 values in normal and cancer cells ([13]; MCF10A versus cancer cell lines): approximately 10 fold | RAD51 multimerization (in words) (RAD51): capable of disrupting RAD51 multimerization; also recorded: can inhibit RAD51 multimerization; also recorded: can disrupt RAD51 multimer formation in vitro; also recorded: inhibits RAD51 multimerization | HR frequency / HR repair (in words) [14]: impairing homologous recombination repair; also recorded: significantly reduced; also recorded: greater depression of HR repair activity; also recorded: inhibit HR repair in cells; also recorded: dose dependently inhibits HR repair

— patent US10730864B2, “RAD51 inhibitors and uses thereof” (THE REGENTS OF THE UNIVERSITY OF CALIFORNIA, priority 2015, dated 2020)
